The values that follow come from PMC7201279, “Structures of substrate- and product-bound forms of a multi-domain copper nitrite reductase shed light on the role of domain tethering in protein complexes” (IUCrJ, 2020).

One assay concerns the target T1, Hd 1NES1NiR (Hyphomicrobium denitrificans, UniProt N0B9M5).
T1 construct: gene HYPDE_25578; N-terminal cupredoxin-tethered three-domain CuNiR; predicted signal peptide removed; 6xHis-tag cut with TEV; E. coli BL21(DE3), pET-26b(+); Cu-loaded; hexamer (dimer of trimers)
T1 sequence (N0B9M5 38-486): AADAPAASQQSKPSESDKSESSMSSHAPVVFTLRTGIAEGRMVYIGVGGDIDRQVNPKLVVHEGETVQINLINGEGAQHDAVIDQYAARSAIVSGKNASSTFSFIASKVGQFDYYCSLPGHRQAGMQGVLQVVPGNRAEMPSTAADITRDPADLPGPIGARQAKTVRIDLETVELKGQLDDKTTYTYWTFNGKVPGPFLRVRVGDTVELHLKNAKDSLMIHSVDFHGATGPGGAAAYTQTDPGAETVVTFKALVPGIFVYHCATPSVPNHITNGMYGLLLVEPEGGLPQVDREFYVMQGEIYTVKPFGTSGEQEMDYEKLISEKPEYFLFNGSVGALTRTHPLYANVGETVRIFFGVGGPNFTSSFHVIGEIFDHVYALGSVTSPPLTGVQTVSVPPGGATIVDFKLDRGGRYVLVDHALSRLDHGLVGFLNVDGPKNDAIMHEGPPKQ
Description: X-ray crystal structure (nitrite-soaked crystal). The assay is classed as binding. The following applies: 100 mM NaNO2 soak, pH 5.3; catalytic T2Cu site, side-on, two of three monomers; third monomer holds NO.

The target in assay [1] is N-terminal cupredoxin-tethered three-domain copper-containing nitrite reductase from Hyphomicrobium denitrificans strain 1NES1 (Hyphomicrobium denitrificans strain 1NES1). Description: SEC; HiLoad 16/600 Superdex 200 pg, 100 mM Tris-HCl pH 8.0, 500 mM NaCl, 10% (v/v) glycerol, 1.0 ml/min; mass estimated from a calibration curve of marker proteins.

Consider `O=NO` [NO2, nitrite], for which the “X-ray crystal structure (nitrite-soaked crystal)” value on Hd 1NES1NiR is listed as “The NO2 ^− is bound to the T2Cu in a side-on conformation”.

Usually stoichiometry N stands for a count of units in the complex or per binding partner. Turning to “N-terminal cupredoxin-tethered three-domain copper-containing nitrite reductase from Hyphomicrobium denitrificans strain 1NES1 (enzyme)”, the stoichiometry N in assay [1] was 6.
